The term IC50 denotes the point on the concentration scale where inhibition reaches its midpoint. In general, Ki refers to a measure of affinity in units of concentration, obtained from inhibition or displacement.

This is an account of results in PMC4724521 (Phytochemistry, 2015).

One data set concerns K. brevis EH. The experiment in a line: Inhibition assay of purified EH with fluorescent substrate 5b. It is filed as biochemical, Karenia brevis. As to conditions: substrate 5b 100 μM, EH 0.1 mg/ml, 2 min preincubation, pH 7.0, 30 °C.
The target in data set [1] is Rhodococcus erythropolis LEH. The note with it: ref Arand et al., 2003; cited from earlier work.
The test system of data set [2] is EH activity of K. brevis CFE.

Molecules are shown by their SMILES.

Regarding `C[C@H]1O[C@@H]1c1ccccc1` (relative stereo) [trans-β-methylstyrene oxide-, trans-β-methylstyrene oxide], it took 14.3 mM to reach half-maximal inhibition in the data set on K. brevis EH (IC50).

In the case of `CC1OC1c1ccccc1` (stereo not drawn) [cis-β-methylstyrene oxide], the IC50 in the data set on K. brevis EH came to 3.05 mM.

Regarding `CCCC(CCC)C(N)=O` [valpromide 8, valpromide], the Ki in data set [1] is 0.1 mM. The “inhibition of total EH activity (in words)” value in data set [2] is given as “only adamantly urea 7 inhibited the total activity”.

Regarding `CC1(C)OC1c1ccccc1` (stereo not drawn) [β-dimethylstyrene oxide], 6.99 mM corresponded to half-maximal inhibition in the data set with K. brevis EH (IC50).
